Consider 7 molecules from patent US11365195B2, “Atypical inhibitors of monoamine transporters; method of making; and use thereof” (THE UNITED STATES OF AMERICA, AS REPRESENTED BY THE …, priority 2017, dated 2022).

The structures appear in SMILES notation. Read-outs that look alike come from different tables or passages of the source.

For one data set, the target named is T1, DAT (Rattus norvegicus, UniProt P23977).
T1 construct: 100 μl of tissue preparation (1.5 mg of brain striatum membranes per well); tissue Bioreclamation IVT (Hicksville, N.Y.); host or cells: male Sprague-Dawley rat brain striatum membranes
T1 sequence (P23977 whole entry): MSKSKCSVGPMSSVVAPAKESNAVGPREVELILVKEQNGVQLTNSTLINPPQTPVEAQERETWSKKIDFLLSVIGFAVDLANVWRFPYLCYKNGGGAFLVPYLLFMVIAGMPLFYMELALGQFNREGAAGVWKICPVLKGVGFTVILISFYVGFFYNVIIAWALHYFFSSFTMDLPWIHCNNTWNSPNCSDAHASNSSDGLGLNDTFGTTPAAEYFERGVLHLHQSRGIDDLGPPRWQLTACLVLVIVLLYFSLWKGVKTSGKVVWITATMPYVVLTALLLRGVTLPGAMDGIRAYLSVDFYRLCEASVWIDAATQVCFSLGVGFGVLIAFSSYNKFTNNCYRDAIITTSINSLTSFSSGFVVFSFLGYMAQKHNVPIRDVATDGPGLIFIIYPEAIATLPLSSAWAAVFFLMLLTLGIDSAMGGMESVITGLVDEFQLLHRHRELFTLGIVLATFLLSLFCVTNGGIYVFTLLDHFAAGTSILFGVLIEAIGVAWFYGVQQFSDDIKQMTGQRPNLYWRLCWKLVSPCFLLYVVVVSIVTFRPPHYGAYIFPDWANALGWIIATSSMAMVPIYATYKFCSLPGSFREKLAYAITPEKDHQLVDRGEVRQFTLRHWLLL
Briefly: DAT radioligand binding in rat striatum ([3H]-WIN35,428 competition). The conditions noted are these: for SERT/DAT: ratio of SERT Ki to DAT Ki. Here is the method: (§1) Binding affinities of the analogue compounds were evaluated at the DAT and SERT in rat brain membranes, and sigma-1 in guinea pig brain membranes according to the following protocols.
DAT Radioligand Binding in Rat Striatum
The tissue was centrifuged at 20,000 rpm for 10 min at 4° C. The pellet was suspended in cold buffer and centrifuged again using the same settings. The resulting pellet was resuspended in cold buffer at a concentration of 15 mg/mL OWW (original wet weight). On test day, all test compounds were freshly dissolved in 30% DMSO and 70% H2O to a stock concentration of 1 mM or 100 μM When necessary, to assist the solubilization of compounds, 10 μl of glacial acetic acid was added along with the DMSO (in place of 10 μl final H2O volume). Each test compound was then diluted into 10 half-log serial dilutions using 30% DMSO vehicle. […] Non-specific binding was determined using […] Indatraline and total binding was determined with 30% DMSO vehicle. The reaction was started with the addition of the tissue. […] The filters were washed 3 times with 3 mL (3×1 mL/well) of ice cold binding buffer. […] These analyses were performed using GraphPad Prism version 6.00 for Macintosh (GraphPad Software, San Diego, Calif.).

The target of a further data set is T2, SERT (Rattus norvegicus, UniProt P31652).
T2 construct: 100 μl of tissue preparation (2 mg of brain stem membranes per well); tissue Bioreclamation IVT (Hicksville, N.Y.); host or cells: male Sprague-Dawley rat brain stem membranes
T2 sequence (P31652 whole entry): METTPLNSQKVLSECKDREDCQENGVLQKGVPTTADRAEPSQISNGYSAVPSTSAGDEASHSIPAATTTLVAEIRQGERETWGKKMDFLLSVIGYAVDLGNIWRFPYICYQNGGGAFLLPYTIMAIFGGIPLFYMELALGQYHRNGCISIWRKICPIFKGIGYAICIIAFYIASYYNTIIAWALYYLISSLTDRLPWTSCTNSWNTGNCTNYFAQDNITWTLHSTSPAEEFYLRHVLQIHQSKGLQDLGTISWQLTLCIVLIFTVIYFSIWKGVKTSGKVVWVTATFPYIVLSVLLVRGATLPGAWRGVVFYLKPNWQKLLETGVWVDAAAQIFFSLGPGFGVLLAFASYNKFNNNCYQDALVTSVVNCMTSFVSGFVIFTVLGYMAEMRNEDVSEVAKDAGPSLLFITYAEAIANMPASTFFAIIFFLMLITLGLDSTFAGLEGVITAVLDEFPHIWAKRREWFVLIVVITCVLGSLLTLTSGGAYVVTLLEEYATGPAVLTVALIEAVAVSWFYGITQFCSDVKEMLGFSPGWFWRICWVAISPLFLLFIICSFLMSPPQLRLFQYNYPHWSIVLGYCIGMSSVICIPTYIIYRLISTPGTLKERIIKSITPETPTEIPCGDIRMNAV
Kind of data set: SERT radioligand binding in rat midbrain ([3H]-Citalopram competition). The conditions noted are these: rat midbrain/brain stem membranes, [3H]-Citalopram, mean ± SEM; read-out: SERT (rat mid-brain-stem) Ki ± SEM. As to the method: as §1
SERT Radioligand Binding in Rat Midbrain
The tissue was centrifuged at 20,000 rpm for 10 min at 4° C. The pellet was suspended in cold buffer and centrifuged again using the same settings. The resulting pellet was resuspended in cold buffer at a concentration of 20 mg/mL OWW (original wet weight). On test day, all test compounds were freshly dissolved in 30% DMSO and 70% H2O to a stock concentration of 1 mM or 100 μM. When necessary, to assist the solubilization of compounds, 10 μl of glacial acetic acid was added along with the DMSO (in place of 10 μl final H2O volume). Each test compound was then diluted into 10 half-log serial dilutions using 30% DMSO vehicle. […] Non-specific binding was determined using […] Fluoxetine HCl and total binding was determined with 30% DMSO vehicle. The reaction was started with the addition of the tissue. All compound dilutions were tested in triplicate and the reaction incubated for 60 min at room temperature. The reaction was terminated by filtration through Perkin Elmer Uni-Filter-96 GF/B, presoaked for 60 min in 0.3% polyethylenimine, using a Brandel 96-Well Plates Harvester Manifold (Brandel Instruments, Gaithersburg, Md.). The filters were washed 3 times with 3 mL (3×1 mL/well) of ice cold binding buffer. […] These analyses were performed using GraphPad Prism version 6.00 for Macintosh (GraphPad Software, San Diego, Calif.).

Another data set has as its target T3, σ1R (Cavia porcellus, UniProt Q60492).
T3 construct: tissue BioReclamation IVT (Hicksville, N.Y.); host or cells: male Hartley guinea pig brain cortex membranes
Briefly: σ1R radioligand binding in guinea pig cortex ([3H]-(+)-Pentazocine competition). The settings on record: for σ1/DAT: ratio of σ1 to DAT affinity values; for σ1/SERT: ratio of σ1 to SERT affinity values. Here is the method: as §1
σ1R Radioligand Binding in Guinea Pig Cortex
Male Hartley guinea pig cortices were dissected from freshly harvested brains (shipped cold in PBS buffer from BioReclamation IVT (Hicksville, N.Y.)) and frozen at −80° C. for future use. […] The supernatant was collected in a clean tube and the pellet re-suspended in 10 ml of cold buffer and centrifuged again (˜1,200 rpm) for 10 min at 4° C. […] The final pellet was suspended in ice-cold binding buffer at 50 mg/ml concentration. […] All test compounds were freshly dissolved in 30% DMSO and 70% H2O to a stock concentration of 1 mM or 100 μM. When necessary, to assist the solubilization of compounds, 10 μl of glacial acetic acid was added along with the DMSO (in place of 10 μl final H2O volume). Each test compound was then diluted into 10 half-log serial dilutions using 30% DMSO as the vehicle. […] Nonspecific binding was determined using either 10 μM PRE084 or 10 μM (+)-Pentazocine and total binding was determined with 30% DMSO vehicle (3% DMSO final concentration). […] The filters were washed 3 times with 3 ml (3×1 ml/well) of ice cold binding buffer.

Data set [1] can be described thus: Phase I metabolic stability in rat liver microsomes. The format is in vitro ADME. The settings on record: for Phase I in Liver Microsomes, Negative Control: rat liver microsomes lacking NADPH; for Phase I in Liver Microsomes, Rat: with NADPH, 10 μM compound, 0.5 mg/mL microsomes; for stability to Phase I metabolism (in words): rat liver microsomes fortified with NADPH. Here is the method: Methods: Phase I metabolic stability assays were conducted in rat liver microsomes. For phase I metabolism, the reactions were carried out with 100 mM potassium phosphate buffer, pH 7.4, in the presence of NADPH regenerating system (1.3 mM NADPH, 3.3 mM glucose 6-phosphate, 3.3 mM MgCl2, 0.4 U/mL glucose-6-phosphate dehydrogenase, […] sodium citrate). Reactions in triplicate were initiated by addition of the liver microsomes to the incubation mixture (compound final concentration was 10 μM; 0.5 mg/mL microsomes). Compound disappearance was monitored via LC/MS/MS. […] The total run time for each analyte was 5.0 min.
In general terms: Microsomes from liver hold many membrane-bound enzymes, among them those of drug oxidation.

The mark [2] stands for this setting: rat striatum membranes, [3H]-WIN35,428, mean ± SEM, read-out: DAT (rat striatum) Ki ± SEM.

T3 sequence (Q60492 whole entry): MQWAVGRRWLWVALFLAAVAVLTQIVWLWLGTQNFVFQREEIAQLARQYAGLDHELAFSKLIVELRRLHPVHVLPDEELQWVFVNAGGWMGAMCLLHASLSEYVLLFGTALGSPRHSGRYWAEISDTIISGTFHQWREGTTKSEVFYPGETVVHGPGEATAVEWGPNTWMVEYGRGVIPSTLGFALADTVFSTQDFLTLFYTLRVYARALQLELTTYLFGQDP

One may read the Ki as a dissociation constant, usually derived from enzyme kinetics or from competition with a known ligand. For the molecule `CC(O)CN1[C@H](C)CN(CC[S+]([O-])C(c2ccc(F)cc2)c2ccc(F)cc2)C[C@@H]1C` (stereo partly drawn) [RDS04-010, 1-((2S,6R)-4-(2-((Bis(4-fluorophenyl)methyl)sulfinyl)ethyl)-2,6-dimethylpiperazin-1-yl)propan-2-ol], the Ki on DAT (setting [2]) is 245 ± 49.7 nM; on SERT, 19000 ± 2550 nM. In addition, at DAT, the SERT/DAT came out at 77.55. Besides, on σ1R, the σ1/DAT is 1.29. The σ1/SERT on σ1R turned out to be 0.017. Besides, the entries for the “Phase I in Liver Microsomes, Negative Control” value (“Phase I … Negative Control” for short) in data set [1] (0 min), in data set [1] (30 min) and in data set [1] (60 min) were 100%, 130% and 108%, respectively. Also, the “Phase I in Liver Microsomes, Rat” value in data set [1] (0 min) is reported as 100%; in data set [1] (30 min) it was 115%; in data set [1] (60 min), 95%.

As to `OC(CN1CCC2(CCN(CCSC(c3ccc(F)cc3)c3ccc(F)cc3)CC2)C1)c1ccccc1` (stereo not drawn) [RDS04-002], the Ki came out at 125 ± 9.7 nM at DAT (setting [2]) and 124 ± 38.2 nM on SERT. Besides, at DAT, the SERT/DAT was 0.99. For the same molecule, the σ1/DAT at σ1R is recorded as 0.36. The σ1/SERT on σ1R is 0.37. The results for the “Phase I … Negative Control” value in data set [1] (0 min), in data set [1] (30 min) and in data set [1] (60 min) were 100%, 128% and 125%, respectively. Besides, the “Phase I in Liver Microsomes, Rat” value in data set [1] (0 min), in data set [1] (30 min) and in data set [1] (60 min) was 100% each time.

Turning to `O=C(c1ccc(F)cc1)N1CCC(NCCSC(c2ccc(F)cc2)c2ccc(F)cc2)CC1` [JBG02-028, (4-((2-((Bis(4-fluorophenyl)methyl)thio)ethyl)amino)piperidin-1-yl)(4-fluorophenyl)methanone], on DAT, the affinity corresponds to a Ki of 7.24 ± 0.78 nM and the SERT/DAT is on record as 66.99. At SERT, the Ki was 485 ± 32 nM. Further, at σ1R, the σ1/DAT is recorded as 4.43 and the σ1/SERT amounted to 0.066. Besides, in data set [1] (0 min), the “Phase I … Negative Control” value is listed as 100% and the “Phase I in Liver Microsomes, Rat” value was found to be 100%. The “Phase I in Liver Microsomes, Rat” value in data set [1] (30 min) turned out to be 40%. Moreover, in data set [1] (60 min), the “Phase I … Negative Control” value worked out at 101% and the “Phase I in Liver Microsomes, Rat” value was 24%. The “stability to Phase I metabolism (in words)” value (“stability” for short) in data set [1] is on record as “susceptibility”.

For the molecule `Cl.Cl.[O-][S+](CCNC1CCN(Cc2ccc(F)cc2)CC1)C(c1ccc(F)cc1)c1ccc(F)cc1` (stereo not drawn) [JBG02-054, N-(2-((Bis(4-fluorophenyl)methyl)sulfinyl)ethyl)-1-(4-fluorobenzyl)piperidin-4-amine], the Ki worked out at 50.6 ± 11.2 nM at DAT (setting [2]) and 370 ± 23.7 nM on SERT. Besides, the SERT/DAT at DAT was 7.31. Further, the σ1/DAT on σ1R stood at 0.52. Also, at σ1R, the σ1/SERT came out at 0.072. Also, the figures for the “Phase I … Negative Control” value in data set [1] (0 min), in data set [1] (30 min) and in data set [1] (60 min) were 100%, 102% and 102%, respectively. Moreover, the “Phase I in Liver Microsomes, Rat” value is 100% in data set [1] (0 min), 100% in data set [1] (30 min) and 95% in data set [1] (60 min).

On to `C[C@@H]1CN(CC[S+]([O-])C(c2ccc(F)cc2)c2ccc(F)cc2)C[C@H](C)N1CC(O)Cc1ccccc1` (stereo partly drawn) [RDS04-011, 1-((2S,6R)-4-(2-((Bis(4-fluorophenyl)methyl)sulfinyl)ethyl)-2,6-dimethylpiperazin-1-yl)-3-phenylpropan-2-ol], for which the Ki on DAT (setting [2]) is 6.78 ± 2.97 nM; at SERT it was 2560 ± 181 nM. At DAT, the SERT/DAT was 377.58. The σ1/DAT on σ1R was 11.12. Also, the σ1/SERT at σ1R was determined as 0.029. Besides, the “Phase I … Negative Control” value in data set [1] (0 min) is on record as 100%; in data set [1] (30 min) it was 132%; in data set [1] (60 min), 106%. Further, the “Phase I in Liver Microsomes, Rat” value in data set [1] (0 min) amounted to 100%; in data set [1] (30 min), 58%; in data set [1] (60 min), 26%. In addition, in data set [1], the “stability” value is “susceptibility”.

Turning to `CC(O)CN1[C@H](C)CN(CCSC(c2ccc(F)cc2)c2ccc(F)cc2)C[C@@H]1C` (stereo partly drawn) [RDS03-094, 1-((2S,6R)-4-(2-((Bis(4-fluorophenyl)methyl)thio)ethyl)-2,6-dimethylpiperazin-1-yl)propan-2-ol], the results for the Ki on DAT and at SERT were 23.5 ± 2.12 nM and 14800 ± 2260 nM, respectively. In addition, at DAT, the SERT/DAT was found to be 629.79. For the same molecule, the σ1/DAT on σ1R turned out to be 0.24. The σ1/SERT at σ1R is given as 0.00038. In addition, the “Phase I … Negative Control” value was found to be 100% in data set [1] (0 min), 106% in data set [1] (30 min) and 109% in data set [1] (60 min). Also, the “Phase I in Liver Microsomes, Rat” value in data set [1] (0 min) came to 100%; in data set [1] (30 min), 99%; in data set [1] (60 min) it was 68%. Further, in data set [1], the “stability” value is “moderate stability”.

As usually defined, the Kd is the concentration at which binding is half-saturated. On to `[O-][S+](CCNC1CCN(CC(O)Cc2ccccc2)CC1)C(c1ccc(F)cc1)c1ccc(F)cc1` (stereo not drawn) [JBG02-057, 1-(4-((2-((Bis(4-fluorophenyl)methyl)sulfinyl)ethyl)amino)piperidin-1-yl)-3-phenylpropan-2-ol], for which the Ki on DAT (setting [2]) turned out to be 91.8 ± 21.3 nM. On DAT, the SERT/DAT is listed as 6.48. The Ki on SERT stood at 595 ± 54.1 nM. Also, on σ1R, binding was put at a Kd of 346 ± 27.1 nM, the σ1/DAT stood at 3.77 and the σ1/SERT turned out to be 0.58. Also, in data set [1] (0 min), the “Phase I … Negative Control” value came out at 100% and the “Phase I in Liver Microsomes, Rat” value amounted to 100%. Besides, in data set [1] (30 min), the “Phase I … Negative Control” value worked out at 102% and the “Phase I in Liver Microsomes, Rat” value is on record as 50%. For the same molecule, in data set [1] (60 min), the “Phase I … Negative Control” value stood at 100% and the “Phase I in Liver Microsomes, Rat” value worked out at 22%. In addition, in data set [1], the “stability” value was “susceptibility”.
